In patent US11021444B2, “Antiviral compounds” (priority 2013, dated 2021):
Where two headings read alike, the source gives them in different places.

Assays:
[1] = molecular target: recombinant RSV complex (Human respiratory syncytial virus A, UniProt P28887); assay: RSV Polymerase Inhibition Assay; format: biochemical
Description: Standard RSV polymerase assays were conducted in the presence of 10 nM recombinant RSV complex in a reaction buffer containing Tris-HCl pH7.5, 6 mM MgCl2, and other additives and substrates including RNA oligonucleotides and radionucleotides. Standard reactions were incubated in 96-well plate format for 2 h at 30° C., in the presence of increasing concentration of inhibitor. The reaction was stopped with 90 μL of 0.1M EDTA, and the reaction product was transferred to a “reading” 96-well plate. After washing of the plate, radiolabeled RNA products were detected according to standard procedures with a Trilux Topcount scintillation counter.

[2] = Cytotoxicity Determination (CCK-8, without addition of virus); format: cell-based; conditions: human, 50% cytotoxicity concentration (CC50)
Description: (§1) CPE reduction assays are performed as described by Sidwell and Huffman et al., Appl. Microbiol. (1971) 22(5):797-801 with slight modifications. HEp-2 cells (ATCC #, CCL-23) are seeded at a density of 1,500 cells/30 μl/well into the 384-well cell plate(s) (Corning #3701) one day prior to the assay. Compounds are added into 384-well cell plates by Labcyte POD 810 Plate Assembler system. Each of the test compounds is provided to duplicate wells of a 384-well cell plate at final concentrations starting from 100 μM or 1 μM using 1/3 stepwise dilutions for 9 points. Quick-thaw Respiratory Syncytial Virus (RSV) long strain (ATCC #VR-26) stock in a 37° C. water bath. Place on ice until ready to use. Viruses are diluted to the concentration of 100 TCID50/30 μL with medium and 30 μl diluted RSV are added into related wells of 384-well cell plates. For each plate, sixteen wells are set aside as uninfected, untreated cell controls (CC), and nine wells per test plate receive virus only as a control for virus replication (VC). The final DMSO concentration of all wells is 1%. Place the plates at 37° C., 5% CO2 for 5 days.
In order to determine the compound cytotoxicity, in parallel, each of the compounds is applied to duplicate wells in a 384-well cell plate at serial final concentrations starting from 100 μM using 1/2 stepwise dilutions for 7 points without addition of virus. Incubate the cells at 37° C., 5% CO2 for 5 days. Add 6 μL CCK-8 into each well and incubate in a CO2 incubator at 37° C. for 3-4 hours.

[3] = test system: Respiratory Syncytial Virus (RSV) long strain; assay: microbe, parasite or virus in culture; format: cell-based; conditions: human respiratory syncytial virus, Tables A and B list compounds by EC50 band
Description: as §1
After 5 days incubation, observe the CPE of cells in all wells. […] Six μl of cell counting kit-8 reagent (CCK-8, Dojindo Molecular Technologies Inc., CK04-20) are added to each well, which allows colorimetric assays to determine the number of viable cells through the dehydrogenase activity detection. After 3-4 hour incubation, the absorbance of each well is measured with a spectrophotometric plate reader at 450 nm wavelength, using a 630 nm filter as background according to manufacturer's instruction.

[4] = HEp-2, 120 h, read-out: 50% effective concentration (EC50), HEp-2 cells infected with RSV long strain, 5 days, CCK-8 readout
[5] = 120 h, read-out: 50% effective concentration (EC50), HEp-2 cells infected with RSV long strain, 5 days, CCK-8 readout

Chain of recombinant RSV complex (P28887 whole entry): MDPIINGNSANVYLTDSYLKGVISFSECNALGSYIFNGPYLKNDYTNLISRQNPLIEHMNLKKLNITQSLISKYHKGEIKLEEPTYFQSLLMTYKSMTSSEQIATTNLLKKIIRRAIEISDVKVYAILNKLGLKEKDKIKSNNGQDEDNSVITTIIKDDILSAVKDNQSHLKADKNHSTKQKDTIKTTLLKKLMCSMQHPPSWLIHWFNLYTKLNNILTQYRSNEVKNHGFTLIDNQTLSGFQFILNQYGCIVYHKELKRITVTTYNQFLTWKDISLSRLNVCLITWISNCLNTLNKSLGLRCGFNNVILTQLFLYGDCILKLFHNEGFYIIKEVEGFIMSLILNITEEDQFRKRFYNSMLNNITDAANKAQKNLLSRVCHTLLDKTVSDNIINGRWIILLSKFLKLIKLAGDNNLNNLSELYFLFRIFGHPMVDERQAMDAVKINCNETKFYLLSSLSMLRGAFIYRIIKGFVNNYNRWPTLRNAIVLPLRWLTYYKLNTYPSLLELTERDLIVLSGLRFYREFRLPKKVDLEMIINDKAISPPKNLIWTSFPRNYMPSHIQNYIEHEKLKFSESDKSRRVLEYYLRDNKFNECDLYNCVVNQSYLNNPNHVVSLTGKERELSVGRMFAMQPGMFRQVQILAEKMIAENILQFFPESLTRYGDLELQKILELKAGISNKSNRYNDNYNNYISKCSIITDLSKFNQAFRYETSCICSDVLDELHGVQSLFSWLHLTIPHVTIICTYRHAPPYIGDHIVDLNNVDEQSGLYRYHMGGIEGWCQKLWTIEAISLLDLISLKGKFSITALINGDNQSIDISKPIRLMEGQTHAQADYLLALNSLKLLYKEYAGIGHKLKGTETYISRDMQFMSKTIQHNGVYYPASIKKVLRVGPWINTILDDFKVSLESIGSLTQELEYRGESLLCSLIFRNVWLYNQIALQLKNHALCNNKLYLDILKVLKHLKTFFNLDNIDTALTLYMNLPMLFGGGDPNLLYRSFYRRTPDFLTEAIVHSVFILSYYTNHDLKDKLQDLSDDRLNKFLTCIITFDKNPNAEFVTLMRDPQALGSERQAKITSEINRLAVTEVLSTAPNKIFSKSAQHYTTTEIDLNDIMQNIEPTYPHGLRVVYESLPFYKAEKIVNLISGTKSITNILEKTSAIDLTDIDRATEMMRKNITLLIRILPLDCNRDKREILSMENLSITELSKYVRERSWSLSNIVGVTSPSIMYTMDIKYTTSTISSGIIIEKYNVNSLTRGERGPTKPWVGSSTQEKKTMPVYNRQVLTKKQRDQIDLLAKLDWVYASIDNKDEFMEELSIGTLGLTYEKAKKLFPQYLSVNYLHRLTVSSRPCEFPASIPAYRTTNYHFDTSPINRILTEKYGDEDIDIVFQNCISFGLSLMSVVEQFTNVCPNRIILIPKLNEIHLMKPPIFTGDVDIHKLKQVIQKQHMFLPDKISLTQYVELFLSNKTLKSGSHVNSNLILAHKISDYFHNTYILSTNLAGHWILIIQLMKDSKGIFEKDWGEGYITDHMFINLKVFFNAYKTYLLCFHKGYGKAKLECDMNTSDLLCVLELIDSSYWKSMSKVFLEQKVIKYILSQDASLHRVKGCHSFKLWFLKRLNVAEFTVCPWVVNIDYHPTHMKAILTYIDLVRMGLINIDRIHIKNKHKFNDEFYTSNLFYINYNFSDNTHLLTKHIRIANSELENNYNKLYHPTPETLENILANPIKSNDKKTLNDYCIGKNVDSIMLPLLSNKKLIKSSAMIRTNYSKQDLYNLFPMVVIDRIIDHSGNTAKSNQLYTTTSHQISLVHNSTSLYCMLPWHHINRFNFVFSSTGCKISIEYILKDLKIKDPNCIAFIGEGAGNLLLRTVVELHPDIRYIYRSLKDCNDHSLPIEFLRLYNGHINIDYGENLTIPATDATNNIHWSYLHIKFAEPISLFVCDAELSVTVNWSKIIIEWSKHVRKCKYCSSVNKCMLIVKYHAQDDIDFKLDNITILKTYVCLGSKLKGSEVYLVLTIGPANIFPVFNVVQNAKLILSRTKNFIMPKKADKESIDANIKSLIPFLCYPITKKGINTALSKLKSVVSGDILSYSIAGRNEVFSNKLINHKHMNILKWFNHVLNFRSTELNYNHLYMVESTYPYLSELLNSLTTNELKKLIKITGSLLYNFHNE
Chain of recombinant RSV complex (P03421 whole entry, further chain): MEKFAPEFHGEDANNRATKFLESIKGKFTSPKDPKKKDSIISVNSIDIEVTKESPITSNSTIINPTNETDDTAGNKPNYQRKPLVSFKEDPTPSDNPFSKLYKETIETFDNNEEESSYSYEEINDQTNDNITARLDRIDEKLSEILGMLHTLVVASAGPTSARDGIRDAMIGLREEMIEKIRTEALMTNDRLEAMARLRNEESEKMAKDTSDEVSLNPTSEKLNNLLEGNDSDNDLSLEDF

Row | SMILES | IC50 [1] [µM] | CC50 at 5 days [2] [µM] | EC50 [3, 4] [µM] | EC50 [3, 5] [µM]
1 | COc1cc(C(=O)NCC(O)(c2ccc(OC)c(-c3ccc(F)c(Cl)c3)n2)C(F)(F)F)ccc1OCC(N)=O (single isomer, unassigned) [Compound 238] | < 1 | 10 to 100 | < 1 | 
2 | COc1cc(C(=O)NCC(C)(O)c2cc3c(c(-c4ccc(F)c(Cl)c4)n2)NCC3)ccc1OCCF (single isomer, unassigned) [Compound 294] | < 10 | > 100 | < 1 | 
3 | COc1cc(C(=O)NCC(C)(O)c2cc3cc[nH]c3c(-c3ccc(F)c(Cl)c3)n2)ccc1OCCF (single isomer, unassigned) [Compound 296] | < 10 | 10 to 100 | < 1 | 
4 | COc1cc(-c2csc3c(F)cccc23)nc(C(O)CNC(=O)c2ccc(OC)c(OC)c2)c1 (stereo not shown) [Compound 100] |  | 10 to 100 |  | 1 to 50
5 | COc1cc(C(=O)NCC(C)(O)c2cc(CO)cc(-c3ccc(F)c(Cl)c3)n2)ccc1OCC1CC1 (stereo not shown) [Compound 101] | < 1 | 10 to 100 | < 1 | 
6 | CCCn1nc(C(O)CNC(=O)c2ccc(OC)c(OC)c2)nc1-c1csc2c(F)cccc12 (stereo not shown) [Compound 107] |  | 10 to 100 |  | 1 to 50
7 | COc1ccc(C(=O)NCC(O)c2csc(-c3csc4c(F)cccc34)n2)cc1OC (stereo not shown) [Compound 108] |  | > 100 |  | 1 to 50
8 | COc1cc(C(=O)NCC(C)(O)c2ncc(OC)c(-c3ccc(F)c(Cl)c3)n2)ccc1OCCO (stereo not shown) [Compound 109] | < 10 | > 100 | 1 to 50 | 
9 | COc1ccc(C(=O)NCC(O)c2cc(C)cc(-c3csc4c(F)cccc34)n2)cc1OC (stereo not shown) [Compound 111] |  | 10 to 100 |  | 1 to 50
10 | COc1cc(C(O)CNC(=O)c2ccc(OC)c(OC)c2)nc(-c2csc3c(F)cccc23)n1 (stereo not shown) [Compound 112] |  | 10 to 100 |  | 1 to 50
11 | COc1ccc(C(=O)NCC(O)c2nc(-c3csc4c(F)cccc34)n3ccccc23)cc1OC (stereo not shown) [Compound 113] |  | 10 to 100 |  | 1 to 50
12 | COCc1ccc(C(=O)NCC(C)(O)c2ccc(OC)c(-c3ccc(F)c(Cl)c3)n2)cc1OC (stereo not shown) [Compound 114] | < 10 | 10 to 100 | 1 to 50 | 
13 | CNC(=O)COc1ccc(C(=O)NCC(C)(O)c2cccc(-c3ccc(F)c(Cl)c3)n2)cc1OC (stereo not shown) [Compound 121] |  | > 100 |  | 1 to 50
14 | COc1cc(-c2csc3c(F)cccc23)nc(C(O)CNC(=O)c2ccc(OC)c(OC)c2)n1 (stereo not shown) [Compound 131] |  | 10 to 100 |  | 1 to 50
15 | COc1ccc(C(=O)NCC(O)c2nc(-c3csc4c(F)cccc34)c[nH]2)cc1OC (stereo not shown) [Compound 132] |  | 10 to 100 |  | 1 to 50
16 | COc1ccc(C(=O)NCC(O)c2nc(-c3csc4c(F)cccc34)cn2C)cc1OC (stereo not shown) [Compound 133] |  | 10 to 100 |  | 1 to 50
17 | COc1ccc(C(=O)NCC(O)c2nc(-c3csc4c(F)cccc34)cs2)cc1OC (stereo not shown) [Compound 134] |  | 10 to 100 |  | 1 to 50
18 | COc1cc(C(=O)NCC(=O)c2cc3c(c(-c4ccc(F)c(Cl)c4)n2)OCC3)ccc1OCCF [Compound 135] | < 100 | > 100 | < 1 | 
19 | COc1ccc(C(=O)NCC(C)(O)c2cccc(-c3csc4c(F)cccc34)n2)cc1OC (stereo not shown) [Compound 142] | < 1 | 10 to 100 | < 1 | 
20 | COc1ccc(C(=O)NCC(OC)c2cccc(-c3csc4c(F)cccc34)n2)cc1OC (stereo not shown) [Compound 148] | < 10 | 10 to 100 | 1 to 50 | 
21 | COc1cc(C(=O)NCC(F)c2ccc(OC)c(-c3ccc(F)c(Cl)c3)n2)ccc1OCCO (stereo not shown) [Compound 149] | < 10 | 10 to 100 | 1 to 50 | 
22 | COc1cc(C(=O)NCC(F)(F)c2ccc(OC)c(-c3ccc(F)c(Cl)c3)n2)ccc1OCCO [Compound 150] | < 10 | > 100 |  | 1 to 50

Row | SMILES | IC50 [1] [µM] | CC50 at 5 days [2] [µM] | EC50 [3, 4] [µM] | EC50 [3, 5] [µM]
23 | COc1cc(C(=O)NCC(O)c2ccc3c(n2)-c2c(sc4c(F)cccc24)CO3)ccc1OCCO (stereo not shown) [Compound 161] | < 100 | 10 to 100 | 1 to 50 | 
24 | COc1cc(C(=O)NCC(O)c2cccc(-c3csc4c(F)cccc34)n2)ccc1OCCO (stereo not shown) [Compound 165] | < 10 | 10 to 100 | 1 to 50 | 
25 | COc1cc(C(=O)NCC(C)(O)c2ccc(OC)c(-c3ccc(F)c(Br)c3)n2)ccc1OCCO (stereo not shown) [Compound 167] | < 1 | 10 to 100 | < 1 | 
26 | COc1ccc(C(=O)NCC(C)(O)c2ccc(OC)c(-c3ccc(F)c(Cl)c3)n2)cc1 (stereo not shown) [Compound 174] | < 10 | 10 to 100 | 1 to 50 | 
27 | COc1ccc(C(C)(O)CNC(=O)c2ccc(-c3nc(C)no3)cc2)nc1-c1ccc(F)c(Cl)c1 (stereo not shown) [Compound 175] | < 10 | > 100 | 1 to 50 | 
28 | CNCC(O)(CNC(=O)c1ccc(OCCO)c(OC)c1)c1ccc(OC)c(-c2ccc(F)c(Cl)c2)n1 (stereo not shown) [Compound 177] | < 10 | > 100 | 1 to 50 | 
29 | COc1cc(C(=O)NCC(O)(CN(C)C)c2ccc(OC)c(-c3ccc(F)c(Cl)c3)n2)ccc1OCCO (stereo not shown) [Compound 178] | < 100 | > 100 | 1 to 50 | 
30 | COc1cc(C(=O)NCC(O)(CN)c2ccc(OC)c(-c3ccc(F)c(Cl)c3)n2)ccc1OCCO (stereo not shown) [Compound 179] | < 1 | > 100 | 1 to 50 | 
31 | COc1cc(C(=O)NCC(O)(CN2CCOCC2)c2ccc(OC)c(-c3ccc(F)c(Cl)c3)n2)ccc1OCCO (stereo not shown) [Compound 181] | < 1 | > 100 | < 1 | 
32 | COc1cc(C(=O)NCC(O)(CN2CCNC(=O)C2)c2ccc(OC)c(-c3ccc(F)c(Cl)c3)n2)ccc1OCCO (stereo not shown) [Compound 182] | < 1 | > 100 | < 1 | 
33 | COc1cc(C(=O)NCC(O)(CN2CCCC2)c2ccc(OC)c(-c3ccc(F)c(Cl)c3)n2)ccc1OCCO (stereo not shown) [Compound 187] | < 10 | > 100 | 1 to 50 | 
34 | COc1cc(C(=O)NCC(O)(CN2CCNCC2)c2ccc(OC)c(-c3ccc(F)c(Cl)c3)n2)ccc1OCCO (stereo not shown) [Compound 190] | < 1 | > 100 |  | 1 to 50
35 | COc1cc(C(=O)NCC(O)(CN2CCNCC2=O)c2ccc(OC)c(-c3ccc(F)c(Cl)c3)n2)ccc1OCCO (stereo not shown) [Compound 196] | < 1 | > 100 | 1 to 50 | 
36 | COc1cc(C(=O)NCC(O)(c2cn(C)nn2)c2ccc(OC)c(-c3ccc(F)c(Cl)c3)n2)ccc1OCCO (stereo not shown) [Compound 199] | < 1 | > 100 | < 1 | 
37 | CC1(C)COc2c1cc(C(O)(CNC(=O)c1cc(O)c3ncccc3c1)C(F)(F)F)nc2-c1ccc(F)c(Cl)c1 (stereo not shown) [Compound 207] | < 1 | 10 to 100 | 1 to 50 | 
38 | COc1cc(C(=O)NCC(=O)c2cc3c(c(-c4ccc(F)c(Cl)c4)n2)OCC3(C)C)cc2c(C)ccnc12 [Compound 229] |  | > 100 |  | 1 to 50
39 | COc1ccc(C(=O)NCC(O)(c2ccc(OC)c(-c3ccc(F)c(Cl)c3)n2)C(F)(F)F)cc1OC (stereo not shown) [Compound 337] |  | 10 to 100 | 1 to 50 | 
40 | COc1cc(C(=O)NCC(O)(c2ccc(OC)c(-c3ccc(F)c(Cl)c3)n2)C(F)(F)F)ccc1OC1CCCNC1=O (stereo not shown) [Compound 340] |  | 10 to 100 |  | < 1
41 | COc1cc(C(=O)NCC(O)(c2ccc(OC)c(-c3ccc(F)c(Cl)c3)n2)C2CC2)ccc1OCC(N)=O (stereo not shown) [Compound 429] |  | 10 to 100 |  | < 1
42 | COc1cc(C(=O)NCC(O)(c2ccc(OC)c(-c3ccc(F)c(Cl)c3)n2)C2CC2)ccc1CCO (stereo not shown) [Compound 433] |  | 10 to 100 |  | < 1
43 | COc1cc(C(=O)NCC(O)(c2cc(C(C)(C)N)cc(-c3ccc(C#N)cc3)n2)C(F)(F)F)ccc1OCC(N)=O (stereo not shown) [Compound 625] | < 1 | > 100 |  | 
